Assay results reported in PubChem BioAssay (NCI).
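Following 48 hours of exposure in 96-well plates, responses at five concentrations were used to interpolate endpoints linearly. The concentration for full growth arrest is given as TGI.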

Experiments:
Assay in all cases: NCI tumour cell line growth inhibition, 48 h
NCI-H522 lung = system: NCI-H522 lung
CAKI-1 renal = system: CAKI-1 renal
EKVX NSCLC = system: EKVX NSCLC
HCT-116 colon = system: HCT-116 colon
U251 CNS = system: U251 CNS
RPMI-8226 leukemia = system: RPMI-8226 leukemia
M14 melanoma = system: M14 melanoma
DU-145 prostate = system: DU-145 prostate
UACC-62 melanoma = system: UACC-62 melanoma
T-47D breast = system: T-47D breast

SMILES: O=C(O)Cc1ccc(Oc2nc3ccccc3nc2-c2ccccc2)cc1
- TGI (NCI-H522 lung): > 100 µM
- TGI (CAKI-1 renal): > 100 µM
- TGI (EKVX NSCLC): 79.5 µM
- TGI (HCT-116 colon): > 100 µM
- TGI (U251 CNS): > 100 µM
- TGI (RPMI-8226 leukemia): > 100 µM
- TGI (M14 melanoma): > 100 µM
- TGI (DU-145 prostate): > 100 µM
- TGI (UACC-62 melanoma): 75.7 µM
- TGI (T-47D breast): > 100 µM

SMILES: CSC1(Cc2ccccn2)C(=O)Nc2cccc([N+](=O)[O-])c21 (stereo not given)
- TGI (NCI-H522 lung): > 100 µM
- TGI (CAKI-1 renal): > 100 µM
- TGI (EKVX NSCLC): > 100 µM
- TGI (HCT-116 colon): > 100 µM
- TGI (U251 CNS): > 100 µM
- TGI (RPMI-8226 leukemia): > 100 µM
- TGI (M14 melanoma): > 100 µM
- TGI (DU-145 prostate): > 100 µM
- TGI (UACC-62 melanoma): > 100 µM
- TGI (T-47D breast): > 100 µM

SMILES: Clc1ccc(Cn2cc(/C=N/n3cnnc3)c3ccccc32)cc1
- TGI (NCI-H522 lung): > 100 µM
- TGI (CAKI-1 renal): > 100 µM
- TGI (EKVX NSCLC): > 100 µM
- TGI (HCT-116 colon): > 100 µM
- TGI (U251 CNS): > 100 µM
- TGI (RPMI-8226 leukemia): > 100 µM
- TGI (M14 melanoma): > 100 µM
- TGI (DU-145 prostate): > 100 µM
- TGI (UACC-62 melanoma): > 100 µM
- TGI (T-47D breast): 52.3 µM

SMILES: CO[C@]12C[C@@H](CNC(=O)c3cc(Br)c[nH]3)O[C@H]1NC(=O)N2
- TGI (NCI-H522 lung): > 100 µM
- TGI (CAKI-1 renal): > 100 µM
- TGI (EKVX NSCLC): > 100 µM
- TGI (HCT-116 colon): > 100 µM
- TGI (U251 CNS): > 100 µM
- TGI (RPMI-8226 leukemia): > 100 µM
- TGI (M14 melanoma): > 100 µM
- TGI (DU-145 prostate): > 100 µM
- TGI (UACC-62 melanoma): > 100 µM
- TGI (T-47D breast): > 100 µM

SMILES: O/N=C1\CSc2ccccc2C1
- TGI (NCI-H522 lung): > 100 µM
- TGI (CAKI-1 renal): > 100 µM
- TGI (EKVX NSCLC): 94.5 µM
- TGI (HCT-116 colon): > 100 µM
- TGI (U251 CNS): > 100 µM
- TGI (RPMI-8226 leukemia): > 100 µM
- TGI (M14 melanoma): > 100 µM
- TGI (DU-145 prostate): > 100 µM
- TGI (UACC-62 melanoma): > 100 µM
- TGI (T-47D breast): > 100 µM

SMILES: CCOP(=O)(/C=C/n1cnc2c(=O)n(C(C)=O)c(N)nc21)OCC
- TGI (NCI-H522 lung): > 100 µM
- TGI (CAKI-1 renal): > 100 µM
- TGI (EKVX NSCLC): > 100 µM
- TGI (HCT-116 colon): > 100 µM
- TGI (U251 CNS): > 100 µM
- TGI (RPMI-8226 leukemia): > 100 µM
- TGI (M14 melanoma): > 100 µM
- TGI (DU-145 prostate): > 100 µM
- TGI (UACC-62 melanoma): > 100 µM
- TGI (T-47D breast): > 100 µM

SMILES: CCOP(=O)(/C=C\n1ccc(=O)[nH]c1=O)OCC
- TGI (NCI-H522 lung): > 100 µM
- TGI (CAKI-1 renal): > 100 µM
- TGI (EKVX NSCLC): > 100 µM
- TGI (HCT-116 colon): > 100 µM
- TGI (U251 CNS): > 100 µM
- TGI (RPMI-8226 leukemia): > 100 µM
- TGI (M14 melanoma): > 100 µM
- TGI (DU-145 prostate): > 100 µM
- TGI (UACC-62 melanoma): > 100 µM
- TGI (T-47D breast): > 100 µM

SMILES: Cc1cc(NS(=O)(=O)c2ccc(NC(=O)c3ccc4nc5ccccc5c(Nc5ccc(S(=O)(=O)Nc6cc(C)on6)cc5)c4c3)cc2)no1
- TGI (NCI-H522 lung): > 50 µM
- TGI (CAKI-1 renal): > 50 µM
- TGI (EKVX NSCLC): > 50 µM
- TGI (HCT-116 colon): > 50 µM
- TGI (U251 CNS): > 50 µM
- TGI (RPMI-8226 leukemia): > 50 µM
- TGI (M14 melanoma): > 50 µM
- TGI (DU-145 prostate): > 50 µM
- TGI (UACC-62 melanoma): > 50 µM
- TGI (T-47D breast): > 50 µM

SMILES: O=c1[nH]nc(Cc2ccccc2)n1C1CC1
- TGI (NCI-H522 lung): > 100 µM
- TGI (CAKI-1 renal): > 100 µM
- TGI (EKVX NSCLC): > 100 µM
- TGI (HCT-116 colon): > 100 µM
- TGI (U251 CNS): > 100 µM
- TGI (RPMI-8226 leukemia): > 100 µM
- TGI (M14 melanoma): > 100 µM
- TGI (DU-145 prostate): > 100 µM
- TGI (UACC-62 melanoma): > 100 µM
- TGI (T-47D breast): > 100 µM

SMILES: CC(C)=NNc1ncnc2nc[nH]c12
- TGI (NCI-H522 lung): 32.2 µM
- TGI (CAKI-1 renal): > 100 µM
- TGI (EKVX NSCLC): 98.2 µM
- TGI (HCT-116 colon): > 75.4 µM
- TGI (U251 CNS): > 100 µM
- TGI (RPMI-8226 leukemia): > 62 µM
- TGI (M14 melanoma): > 100 µM
- TGI (DU-145 prostate): 67.8 µM
- TGI (UACC-62 melanoma): 20 µM
- TGI (T-47D breast): > 79.1 µM

SMILES: O=C(c1ccccc1)c1ccc2nc3n(c2c1)C(c1c(Cl)cccc1Cl)SC3 (stereo not given)
- TGI (NCI-H522 lung): 5.1 µM
- TGI (CAKI-1 renal): > 51.7 µM
- TGI (EKVX NSCLC): 78.6 µM
- TGI (HCT-116 colon): 12.8 µM
- TGI (U251 CNS): > 100 µM
- TGI (RPMI-8226 leukemia): > 74.7 µM
- TGI (M14 melanoma): 16.9 µM
- TGI (DU-145 prostate): > 94.5 µM
- TGI (UACC-62 melanoma): > 36.5 µM
- TGI (T-47D breast): 24.5 µM

SMILES: Nc1nc2c(c(=O)[nH]1)NC(CCNc1ccc(C(=O)O)cc1)CN2 (stereo not given)
- TGI (NCI-H522 lung): > 100 µM
- TGI (CAKI-1 renal): > 100 µM
- TGI (EKVX NSCLC): > 100 µM
- TGI (HCT-116 colon): > 100 µM
- TGI (U251 CNS): > 100 µM
- TGI (RPMI-8226 leukemia): > 100 µM
- TGI (M14 melanoma): > 100 µM
- TGI (DU-145 prostate): > 100 µM
- TGI (UACC-62 melanoma): > 100 µM
- TGI (T-47D breast): > 100 µM

SMILES: Nc1ncnc2c1N=C(c1ccccc1)CC(c1ccccc1)N2 (stereo not given)
- TGI (NCI-H522 lung): > 100 µM
- TGI (CAKI-1 renal): > 100 µM
- TGI (EKVX NSCLC): > 100 µM
- TGI (HCT-116 colon): > 100 µM
- TGI (U251 CNS): > 100 µM
- TGI (RPMI-8226 leukemia): > 100 µM
- TGI (M14 melanoma): > 100 µM
- TGI (DU-145 prostate): > 100 µM
- TGI (UACC-62 melanoma): > 100 µM
- TGI (T-47D breast): > 100 µM

SMILES: O=S(=O)(c1ccc2ccccc2c1)N1CCN(S(=O)(=O)c2ccc3ccccc3c2)CC1
- TGI (NCI-H522 lung): > 100 µM
- TGI (CAKI-1 renal): > 100 µM
- TGI (EKVX NSCLC): > 100 µM
- TGI (HCT-116 colon): > 100 µM
- TGI (U251 CNS): > 100 µM
- TGI (RPMI-8226 leukemia): > 100 µM
- TGI (M14 melanoma): > 100 µM
- TGI (DU-145 prostate): > 100 µM
- TGI (UACC-62 melanoma): > 100 µM
- TGI (T-47D breast): > 100 µM

SMILES: CC(C)(CC1(C)NC(=O)NC1=O)OCc1ccccc1 (stereo not given)
- TGI (NCI-H522 lung): > 100 µM
- TGI (CAKI-1 renal): > 100 µM
- TGI (EKVX NSCLC): > 100 µM
- TGI (HCT-116 colon): > 100 µM
- TGI (U251 CNS): > 100 µM
- TGI (RPMI-8226 leukemia): > 100 µM
- TGI (M14 melanoma): > 100 µM
- TGI (DU-145 prostate): > 100 µM
- TGI (UACC-62 melanoma): > 100 µM
- TGI (T-47D breast): > 100 µM

SMILES: O=S(=O)(/N=C(\NO)Nc1ccc(Cl)cc1)c1cc(S(=O)(=O)c2ccccc2)cs1
- TGI (NCI-H522 lung): 25.2 µM
- TGI (CAKI-1 renal): 46.7 µM
- TGI (EKVX NSCLC): 35.4 µM
- TGI (HCT-116 colon): 26.4 µM
- TGI (U251 CNS): 30.6 µM
- TGI (RPMI-8226 leukemia): 44.8 µM
- TGI (M14 melanoma): 29.2 µM
- TGI (DU-145 prostate): 33 µM
- TGI (UACC-62 melanoma): 43.1 µM
- TGI (T-47D breast): 44.3 µM
